{"source": "patent US20240366611A1", "about": "“METHODS OF TREATING A DISEASE OR DISORDER” (Ascentage Pharma (Suzhou) Co., Ltd., priority 2021, published 2024)", "key": {"[1]": {"system": "H3K27me3 in TER119+ erythroid lineage cells", "experiment": "H3K27me3 level in TER119+ erythroid lineage cells from bone marrow (FACS, H3K27me3/H3 ratio)", "type": "in vivo, CD-1 mice", "experimental": "(§1) Female CD-1 mice (8 weeks old) were housed and handled in a temperature-controlled environment with a 12-h light/12-h dark cycle. A total of 25 mice were assigned to 5 groups by randomization based on body weight, followed by 5 days of treatment with vehicle (po, qd), 3 mg/kg Cpd. 73 (po, qd), 10 mg/kg Cpd. 73 (po, qd), 30 mg/kg Cpd. 73 (po, qd), or 90 mg/kg Cpd. 73 (po, qd). The protocols and procedures involving the care and use of animals were approved by the Institutional Animal Care and Use Committee (IACUC) of WuXiAppTec (Shanghai) Co., Ltd. (Shanghai, China).\nMice were euthanatized 4 hours post the last dose. Whole blood and bone marrow were collected. Bone marrow cells were flushed from femur and tibia with IMDM+/+ (IMDM, 10% heat inactivated FBS, 100 U/mL penicillin and 100 μg/mL streptomycin). Aggregate was removed by passing through 40 μm cell strainer. 5 mL DPBS was used to pellet the cells after centrifugation, and the cell number was counted. Whole blood was added with 1×RBC lysis buffer remove RBC (whole blood: 1×RBC lysis buffer=1:9), and mononuclear cells were collected by centrifugation. The cells were then washed with 1×DPBS for once and resuspended in 3 ml DPBS after centrifugation followed by cell number counting.\nBone marrow cells were stained with FITC-conjugated anti-mouse TER-119 antibody (Thermo Fisher, 11-5921-82) and eFluor 506-conjugated anti-mouse CD45 antibody (Thermo Fisher, 69-0451-82). TER-119+ cells were erythroid lineage cells. PBMC were stained with eFlour 450-conjugated anti-mouse CD11b antibody (Invitrogen, 48-0112-82), PerCP-eFluor710-conjugated anti-mouse CD3 antibody (Invitrogen, 46-0032-82), eFluor 506-conjugated anti-mouse CD45 antibody (Thermo Fisher, 69-0451-82). CD45+CD3−CD11b+ cells were monocytes from PBMC.\nAfter washing, centrifugation and fixation, the cells were permeabilized and further incubated with antibodies of H3K27m3 (Tri-Methyl-Histone H3 (Lys27) (C36B11) Rabbit mAb (PE Conjugate), CST, 40724S) and H3 (Histone H3 (D1H2) XP® Rabbit mAb (Alexa Fluor®647 Conjugate), CST, 12230S), followed by FACS analysis to quantify the mean fluorescence intensity of target cells. The ratio between the fluorescence intensity of H3K27me3 and H3 were used to reflect the level of H3K27me3 in the cells."}, "Hbb-bh1 mRNA": {"system": "Hbb-bh1 mRNA", "experiment": "Hbb-bh1 mRNA level in whole blood (qPCR, relative to GAPDH)", "type": "in vivo, CD-1 mice", "experimental": "as §1\nMouse Hbb-bh1 gene, the homolog to human HBG1 gene encoding γ hemoglobin, is used as an efficacy biomarker in wide-type CD-1 mice. One hundred and twenty μL whole blood was collected for RNA isolation following the instructions of Trizol LS reagent (Invitrogen, 10296028). The relative expression of Hbb-bh1 mRNA to GAPDH mRNA were quantified by qPCR. The relative expression of Hbb-bh1 mRNA in the whole blood of CD-1 mice increased with increasing dose of Cpd. 73 from 3 mg/kg (qd×5 days) to 90 mg/kg (qd×5 days). The Hbb-bh1 mRNA levels were 82.2%, 114.6% and 178.3% of the vehicle control group when Cpd. […] 73 (p<0.05, vs. vehicle). The increased expression of Hbb-bh1 mRNA may result in increased expression of mouse βh1 hemoglobin."}, "[2]": {"system": "CD4+CD45RBhigh T-cell transfer-induced IBD in CB17 mice", "experiment": "T cell transfer induced inflammatory bowel disease (IBD) model", "type": "in vivo", "settings": "90 mg/kg po qd day 14 to day 41", "description": "Female CB17 mice (8 weeks old) were obtained from Zhejiang Vital River Laboratory Animal Co. Ltd. Animals were housed and handled in a temperature-controlled environment with a 12-h light/12-h dark cycle. A total of 30 mice were assigned to 3 groups by randomization based on body weight.\nTo generate T cell transfer induced colitis, 95 female Balb/c mice, aged 8-10 weeks, were used to prepare naive CD4^+CD45RB^high T and CD4^+CD45RB^low T cells. The mouse spleens were harvested in precooled DPBS, grinded into cell suspension and passed through a 70 μm cell filter after erythrocytes lysed by ACK. Cells were collected and counted by centrifugation. Then, CD4 positive T cells were isolated by using negative magnetic bead separation kit. CD4^+CD45RB^high naive T cells were selected by flow cytometry and used for model construction. 20 CB17 model mice were intraperitoneally injected with 5×10^5 naive CD4^+CD45RB^high T cells each on Day 0. 10 mice in negative control group were intraperitoneally injected with 5×10^5 CD4^+CD45RB^low T cells on Day 0.\nMice in Group 2 were treated with vehicle for 28 days (po, qd, from day 14 to day 41). Mice in Group 3 were treated with 90 mg/kg Cpd. 73 for 28 days (therapeutic regimen, po, qd, from day 14 to day 41). The protocols and procedures involving the care and use of animals were approved by the Institutional Animal Care and Use Committee (IACUC) at WuxiApptec (Shanghai, China).\nClinical signs of IBD were assessed every day based on the score of disease activity index (DAI) which was evaluated from two parameters using a scoring system from 0 to 4: stool consistency (0, normal stool; 1, soft but still formed stool; 2, soft and not formed stool; 3, very soft and wet stool; 4, watery diarrhea), and body weight loss (0, no body weight loos; 1, 1-5% body weight loss; 2, 6-10% body weight loss; 3, 11-20% body weight loss; 4, >20% body weight loss).\nAt the end of the study (day 42), the animals were euthanized, dissected and the entire colon was quickly removed and gently cleared of feces.\nAt the end of the study (day 42), all the animals were sacrificed by CO2. The colon was Swiss-rolled and fixed with neutralized PFA followed by H&E staining. After that, the pathologists from WuXi clinical pathological analysis platform, who were blinded to animal ID, reviewed the H&E staining and scored. The pathological scoring standards were as follows: crypt architecture (normal, 0; severe crypt distortion with loss of entire crypts, 3), degree of inflammatory cell infiltration (normal, 0; dense inflammatory infiltrate, 3), muscle thickening (normal, 0; marked muscle thickening present, 3), goblet cell depletion (absent, 0; present, 1) and crypt abscess (absent, 0; present, 1)."}}, "data": [{"smiles": "CC(C)N1Cc2cc(C(F)(F)F)ncc2-c2cnc(NCc3c(F)ccc4c3CCO4)n3cnc(c23)C1=O", "note": "[Cpd. 73, 12-(((5-fluoro-2,3-dihydrobenzofuran-4-yl)methyl)amino)-4-isopropyl-7-(trifluoromethyl)-4,5-dihydro-3H-2,4,8,11,12a-pentaazabenzo[4,5]cycloocta[1,2,3-cd]inden-3-one]", "values": [{"measurement": "decrease in H3K27me3 level", "setting": "[1]; 3 mg/kg po qd×5 days, vs vehicle", "result": 21.2, "unit": "%"}, {"measurement": "decrease in H3K27me3 level", "setting": "[1]; 10 mg/kg po qd×5 days, vs vehicle", "result": 18.7, "unit": "%"}, {"measurement": "decrease in H3K27me3 level", "setting": "[1]; 30 mg/kg po qd×5 days, vs vehicle", "result": 21.6, "unit": "%"}, {"measurement": "decrease in H3K27me3 level", "setting": "[1]; 90 mg/kg po qd×5 days, p<0.01 vs vehicle", "result": 39.7, "unit": "%"}, {"measurement": "Hbb-bh1 mRNA level, of the vehicle control group", "setting": "Hbb-bh1 mRNA; 3 mg/kg po qd×5 days", "result": 82.2, "unit": "%"}, {"measurement": "Hbb-bh1 mRNA level, of the vehicle control group", "setting": "Hbb-bh1 mRNA; 10 mg/kg po qd×5 days", "result": 114.6, "unit": "%"}, {"measurement": "Hbb-bh1 mRNA level, of the vehicle control group", "setting": "Hbb-bh1 mRNA; 30 mg/kg po qd×5 days", "result": 178.3, "unit": "%"}, {"measurement": "Hbb-bh1 mRNA, fold of increase", "setting": "Hbb-bh1 mRNA; 90 mg/kg po qd×5 days, p<0.05 vs vehicle", "result": 3.04, "unit": "fold"}, {"measurement": "body weight loss", "setting": "[2]", "result": "improved"}, {"measurement": "colon length", "setting": "[2]; day 42, vehicle 7.72±0.18 cm", "result": "10.26±0.22", "unit": "cm"}, {"measurement": "pathological score (H&E, colon)", "setting": "[2]; day 42, vehicle 9.00±0.47", "result": "3.70±0.37"}, {"measurement": "colon weight", "setting": "[2]; day 42, vehicle 439.10±25.46 mg", "result": "323.40 ± 16.06", "unit": "mg"}, {"measurement": "DAI score", "setting": "[2]; on day 42, vehicle 4.90±0.41", "result": "1.4±0.27"}]}]}
